Experiments:
Assay in all cases: Glasshouse herbicide test, pre- and post-emergence, percentage damage
Assay type in all cases: in vivo
[1] = test system: Alopecurus myosuroides (ALOMY); conditions: 250 g/h, evaluated after 13 days, percentage damage on five point scale; for ALOMY POST: post-emergence; for ALOMY PRE: pre-emergence
Procedure, shortened: (§1)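 Seeds are sown in pots, grown at 24/16 °C day/night with 14 h light and 65% humidity, then sprayed at day 1 (pre-emergence) or day 8 (post-emergence). The rate is 250 g/h in acetone/water 50:50 with 0.5% Tween 20. Damage is assessed 13 days later on a 1–5 scale.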

[2] = test system: Lolium perenne (LOLPE); conditions: 250 g/h, evaluated after 13 days, percentage damage on five point scale; for LOLPE POST: post-emergence; for LOLPE PRE: pre-emergence
Procedure, shortened: as §1

[3] = test system: Setaria faberi (SETFA); conditions: 250 g/h, evaluated after 13 days, percentage damage on five point scale; for SETFA POST: post-emergence; for SETFA PRE: pre-emergence
Procedure, shortened: as §1

[4] = test system: Avena fatua (AVEFA); conditions: 250 g/h, evaluated after 13 days, percentage damage on five point scale; for AVEFA POST: post-emergence; for AVEFA PRE: pre-emergence
Procedure, shortened: as §1

[5] = test system: Echinochloa crus-galli (ECHCG); conditions: 250 g/h, evaluated after 13 days, percentage damage on five point scale; for ECHCG POST: post-emergence; for ECHCG PRE: pre-emergence
Procedure, shortened: as §1

| Compound | ALOMY POST [1] | ALOMY PRE [1] | LOLPE POST [2] | LOLPE PRE [2] | SETFA POST [3] | SETFA PRE [3] | AVEFA POST [4] | AVEFA PRE [4] | ECHCG POST [5] | ECHCG PRE [5] |
| --- | --- | --- | --- | --- | --- | --- | --- | --- | --- | --- |
| Cc1cc(-c2ncc(F)cn2)cc(C)c1C1C(=O)CC2(CCN(C(=O)C(C)(C)C)CC2)CC1=O [Compound A40] | 5 (5=80-100%) | 5 (5=80-100%) | 5 (5=80-100%) | 5 (5=80-100%) | 5 (5=80-100%) | 5 (5=80-100%) | 5 (5=80-100%) | 5 (5=80-100%) | 5 (5=80-100%) | 5 (5=80-100%) |
| Cc1cc(-c2ncc(F)cn2)cc(C)c1C1C(=O)CC2(CCN(C(=O)NC(=O)c3ccccn3)CC2)CC1=O [Compound A41] | 5 (5=80-100%) | 3 (3=40-59%) | 5 (5=80-100%) | 3 (3=40-59%) | 5 (5=80-100%) | 5 (5=80-100%) | 5 (5=80-100%) | 3 (3=40-59%) | 5 (5=80-100%) | 4 (4=60-79%) |
| CC(=O)N1CCC2(CC1)CC(=O)C(c1c(C)cc(C)cc1C)C(=O)C2 [Compound A42] | 5 (5=80-100%) | 5 (5=80-100%) | 5 (5=80-100%) | 5 (5=80-100%) | 5 (5=80-100%) | 5 (5=80-100%) | 5 (5=80-100%) | 5 (5=80-100%) | 1 (1=0-19%) | 3 (3=40-59%) |
| Cc1cc(-c2ncc(F)cn2)cc(C)c1C1C(=O)CC2(CCN(C(=O)CC#N)CC2)CC1=O [Compound A43] | 5 (5=80-100%) | 5 (5=80-100%) | 5 (5=80-100%) | 5 (5=80-100%) | 5 (5=80-100%) | 5 (5=80-100%) | 5 (5=80-100%) | 5 (5=80-100%) | 5 (5=80-100%) | 5 (5=80-100%) |
| Cc1cc(-c2ccc(C#N)cn2)cc(C)c1C1C(=O)CC2(CCN(C(=O)CC#N)CC2)CC1=O [Compound A44] | 5 (5=80-100%) | 5 (5=80-100%) | 5 (5=80-100%) | 3 (3=40-59%) | 5 (5=80-100%) | 5 (5=80-100%) | 5 (5=80-100%) | 3 (3=40-59%) | 4 (4=60-79%) | 5 (5=80-100%) |
| CC(=O)N1CCC2(CC1)CC(=O)C(c1c(C)cc(-c3ccc(Cl)cn3)cc1C)C(=O)C2 [Compound A45] | 5 (5=80-100%) | 5 (5=80-100%) | 5 (5=80-100%) | 5 (5=80-100%) | 5 (5=80-100%) | 5 (5=80-100%) | 5 (5=80-100%) | 5 (5=80-100%) | 5 (5=80-100%) | 5 (5=80-100%) |
| CC(=O)N1CCC2(CC1)CC(=O)C(c1c(C)cc(-c3ccc(F)cn3)cc1C)C(=O)C2 [Compound A46] | 5 (5=80-100%) | 5 (5=80-100%) | 5 (5=80-100%) | 5 (5=80-100%) | 5 (5=80-100%) | 5 (5=80-100%) | 5 (5=80-100%) | 5 (5=80-100%) | 5 (5=80-100%) | 5 (5=80-100%) |
| CC(=O)N1CCC2(CC1)CC(=O)C(c1c(C)cc(-n3cc(F)cn3)cc1C)C(=O)C2 [Compound A47] | 5 (5=80-100%) | 2 (2=20-39%) | 5 (5=80-100%) | 4 (4=60-79%) | 5 (5=80-100%) | 4 (4=60-79%) | 5 (5=80-100%) | 4 (4=60-79%) | 1 (1=0-19%) | 3 (3=40-59%) |
| CC(=O)N1CCC2(CC1)CC(=O)C(c1c(C)cc(-c3ncc(F)cc3F)cc1C)C(=O)C2 [Compound A48] | 5 (5=80-100%) | 5 (5=80-100%) | 5 (5=80-100%) | 5 (5=80-100%) | 5 (5=80-100%) | 5 (5=80-100%) | 5 (5=80-100%) | 5 (5=80-100%) | 5 (5=80-100%) | 5 (5=80-100%) |
| CC(=O)N1CCC2(CC1)CC(=O)C(c1c(C)cc(-c3ccc(Cl)cc3)cc1C)C(=O)C2 [Compound A49] | 5 (5=80-100%) | 5 (5=80-100%) | 5 (5=80-100%) | 5 (5=80-100%) | 5 (5=80-100%) | 5 (5=80-100%) | 5 (5=80-100%) | 5 (5=80-100%) | 5 (5=80-100%) | 5 (5=80-100%) |
| CC(=O)N1CCC2(CC1)CC(=O)C(c1c(C)cc(-c3ncc(Cl)cc3F)cc1C)C(=O)C2 [Compound A50] | 5 (5=80-100%) | 5 (5=80-100%) | 5 (5=80-100%) | 5 (5=80-100%) | 5 (5=80-100%) | 5 (5=80-100%) | 5 (5=80-100%) | 5 (5=80-100%) | 5 (5=80-100%) | 5 (5=80-100%) |
| CC(=O)N1CCC2(CC1)CC(=O)C(c1c(C)cc(-c3ncc(Cl)cn3)cc1C)C(=O)C2 [Compound A51] | 5 (5=80-100%) | 5 (5=80-100%) | 5 (5=80-100%) | 5 (5=80-100%) | 5 (5=80-100%) | 5 (5=80-100%) | 5 (5=80-100%) | 5 (5=80-100%) | 5 (5=80-100%) | 5 (5=80-100%) |
| CC(=O)N1CCC2(CC1)CC(=O)C(c1c(C)cc(-c3ncc(C#N)cn3)cc1C)C(=O)C2 [Compound A52] | 5 (5=80-100%) | 5 (5=80-100%) | 5 (5=80-100%) | 5 (5=80-100%) | 5 (5=80-100%) | 5 (5=80-100%) | 5 (5=80-100%) | 5 (5=80-100%) | 5 (5=80-100%) | 5 (5=80-100%) |
| CCS(=O)(=O)N1CCC2(CC1)CC(=O)C(c1c(C)cc(-c3ccc(F)cc3)cc1C)C(=O)C2 [Compound A53] | – | 5 (5=80-100%) | 5 (5=80-100%) | 5 (5=80-100%) | 5 (5=80-100%) | 5 (5=80-100%) | 5 (5=80-100%) | 4 (4=60-79%) | 3 (3=40-59%) | 5 (5=80-100%) |
| Cc1cc(-c2ccc(F)cc2)cc(C)c1C1C(=O)CC2(CCN(C(=O)c3ccccc3)CC2)CC1=O [Compound A54] | – | 5 (5=80-100%) | 5 (5=80-100%) | 5 (5=80-100%) | 5 (5=80-100%) | 5 (5=80-100%) | 5 (5=80-100%) | 5 (5=80-100%) | 5 (5=80-100%) | 5 (5=80-100%) |

Source: patent US11980188B2, “Spiro cyclohexanedione derivates as herbicides” (SYNGENTA PARTICIPATIONS AG, priority 2018, dated 2024)
